Test results taken from patent publication US11098003B2, “Control and repellency of bed bugs” (BEDOUKIAN RESEARCH, INC., priority 2012, dated 2021).

System: bed bugs
Test: Petri dish choice test, treated vs. untreated paper discs: repellency (avoidance) of bed bugs
Format: in vivo, Cimex species
Conditions: 1 ml acetone solution on paper disc, distribution at 2 hours post-treatment, 5 replicates of 10 bed bugs
Protocol: Two semicircle discs of paper, one treated (1 ml of acetone solution of each compound was applied to each disc) and one untreated (1 ml of acetone only), were placed in the lid of a Petri dish. […] Five replicates of 10 bed bugs were released into the centers of the lids and were thus presented with a choice of treated vs. untreated substrate (or untreated vs. untreated in the control arenas). The distribution of the bed bugs was recorded at 2 hours post-treatment. Paired t-tests were conducted for each treatment to ascertain whether or not there was a statistically significant difference in the numbers of bed bugs on the treated vs. untreated discs.

Molecule: CCN(CC)C(=O)c1cccc(C)c1 [DEET, N,N-Diethyl-m-toluamide, reference compound]
- Repellency/Avoidance (0.09% compound): 66%
- Repellency/Avoidance (0.2% compound): 74%

Molecule: CCCCCC1C(=O)CCC1CC(=O)O (stereo not shown) [Dihydrojasmonic Acid]
- Repellency/Avoidance (0.2% compound): 78%

Molecule: CCCCCC1C(O)CCC1CC(=O)OC (stereo not shown) [Methyl dihydrojasmolate]
- Repellency/Avoidance (0.15% compound): 58%
- Repellency/Avoidance (0.2% compound): 82%

Molecule: CCCCCC1C(CC(=O)OC)CCC1(OC)OC (stereo not shown) [Methyl dihydrojasmonate dimethyl acetal]
- Repellency/Avoidance (0.2% compound): 90%

Molecule: CC1CCC(C(C)(C)O)C(O)C1 (stereo not shown) [Para Menthane-3,8-diol (PMD), Para Menthane-3,8-diol, reference compound]
- Repellency/Avoidance (0.15% compound): 42%
- Repellency/Avoidance (0.2% compound): 70%

Molecule: CCCCCC1C(O)CCC1CC(=O)OCC=C(C)C (stereo not shown) [Prenyl dihydrojasmolate]
- Repellency/Avoidance (0.2% compound): 48%

Molecule: CCCCCCCCCC1(C)CCC(=O)O1 (stereo not shown) [gamma Methyl tridecalactone]
- Repellency/Avoidance (0.2% compound): 72%

Molecule: CCCCCCCCC1CCC(=O)O1 (stereo not shown) [gamma-Dodecalactone]
- Repellency/Avoidance (0.2% compound): 82%

Molecule: CCCCCCCCCCCCCC1CCC(=O)O1 (stereo not shown) [gamma-Heptadecalactone]
- Repellency/Avoidance (2% compound): 68%

Molecule: CCCCCCCCCCCC1CCC(=O)O1 (stereo not shown) [gamma-Pentadecalactone]
- Repellency/Avoidance (1% compound): 92%

Molecule: CCCCCCCCCC1CCC(=O)O1 (stereo not shown) [gamma-Tridecalactone]
- Repellency/Avoidance (0.5% compound): 86%
- Repellency/Avoidance (1% compound): 96%

Molecule: Dihydrojasmolactone
- Repellency/Avoidance (0.2% compound): 84%

Molecule: Methyl apritol
- Repellency/Avoidance (0.15% compound): 74%
- Repellency/Avoidance (0.2% compound): 88%

Molecule: Methyl dihydrojasmonate amide
- Repellency/Avoidance (concentration not given): 28%
